# Reference: ChEMBL document CHEMBL1157539, “Thousands of chemical starting points for antimalarial lead identification” (Nature, 2010)
# Tested on: Plasmodium falciparum
# Test: GSK_TCMDC: Inhibition of Plasmodium falciparum 3D7 in whole erythrocytes, using parasite LDH activity as an index of growth.
# Assay type: functional, organism-based
# Details: Plasmodium falciparum, 3D7
row,Compound,XC50 [nM]
1,CCOC(=O)/C(=N\OC(C(=O)OC(C)(C)C)c1ccccc1)c1csc(NC(c2ccccc2)(c2ccccc2)c2ccccc2)n1 (stereo unspecified),1110
2,Cc1cc(C(=O)Nc2ccc3c(c2)CCN3C2CCN(Cc3ccc(O)cc3)C2)no1 (stereo unspecified),774
3,CCCc1cnc2nc(N)nc(N)c2c1C,1120
4,Cc1cc(NC(=O)c2ccc(-c3ccccc3)cc2)no1,1020
5,N#CCCN1CCN(Cc2cccc(-c3ccc(-c4nc5cc(F)ccc5[nH]4)cc3)c2)CC1,599
6,CCN(CC)CCNc1c2ccc(Cl)cc2nc2ccc(OC)nc12,736
7,CC(=O)c1ccc(-c2ccccc2)s1,1080
8,O=S(=O)(Nc1ccc(CCN2CCC(N3CCCCC3)CC2)cc1)c1cccc2cccnc12,1060
9,Nc1ccc(-c2cc(Cl)cc(Cl)c2)cc1-c1cc2ccccc2[nH]1,695
10,CCc1c(C(=O)NC2CCC(N3CCC(c4ccccc4OC)CC3)CC2)[nH]c2ccc(OC)cc12 (stereo unspecified),1110
11,CCOC(=O)c1cc(C(=O)NCCCCN2CCC(c3cn(C)c4ccccc34)CC2)ccc1-c1ccc(C(F)(F)F)cc1,1200
12,O=C(CCc1ccccc1)N[C@H](Cc1c[nH]c2ccccc12)C(=O)N1CCC(NCc2ccc3c(c2)Cc2ccccc2-3)CC1,910
13,O=C(NCCCCN1CCC(c2ccc3ccccc3c2O)CC1)c1ccc(-c2ccc(Cl)cc2)cc1,181
14,COc1ccc(CNCc2ccc(-c3ccc(-c4nc5cccc(C)c5[nH]4)s3)cc2)cc1,180
15,CCc1ccccc1N=C1c2c(cccc2[N+](=O)[O-])C(=O)C1C(C)=O (stereo unspecified),90.9
16,COc1cc2c(OC)cccc2cc1CNCCCCCCNCc1cc2cccc(OC)c2cc1OC,823
17,Cc1cccc2nc(-c3cccc(-c4ccc(NC(=O)C(C)CN5CCOCC5)cc4)c3)[nH]c12 (stereo unspecified),689
18,CC(=O)N1N=C(c2ccc(Cl)cc2)Sc2c1nc(C1CCCCC1)n2C(C)=O,249
19,O=C(NC1CCN(CC2(c3ccc(Cl)cc3)CCC2)CC1)c1cscn1,535
20,CC(C)(Oc1c(C2CCN(CCCCNC(=O)c3ccc(-c4ccc(C#N)cc4)cc3)CC2)ccc2c1CCCC2)C(N)=O,696
21,Cc1cc(N[C@@H](Cc2ccccc2)C(=O)NC2CCCC2)nc(NCCOc2ccccc2)n1,1110
22,CN(C)c1nc(NCc2ccccc2)nc(N/N=C/c2cc([N+](=O)[O-])ccc2O)n1,685
23,Cc1cccc2nc(-c3ccc(-c4ccc(CNCc5ccc(CN)cc5)cc4)cc3)[nH]c12,721
24,O=C(CCCCCNC(=O)c1ccc(O)c(-c2ccc(Cl)c(Cl)c2)c1)NCc1cccc(C(F)(F)F)c1,731

row,Compound,XC50 [nM]
1,CO/C(=C\C=C\c1cc2cc(Cl)c(Cl)cc2[nH]1)C(=O)NCCCN1CC(C)N(C)CC1C (stereo unspecified),1130
2,COc1ccc2nccc([C@@H](O)CN3CCC(NCc4cc5cc([N+](=O)[O-])ccc5[nH]4)CC3)c2c1,117
3,Oc1ccc(CNCCCCCCNCCc2ccc(Cl)cc2)cc1O,989
4,O=C(Nc1ccc2ccccc2n1)c1ccccc1-c1ccccc1,438
5,CCCN(CCC)S(=O)(=O)c1ccc(C(=O)Nc2nc3ccc(-c4cc(=O)[nH]c(Nc5ccccc5Cl)n4)cc3[nH]2)cc1,594
6,Cc1cccc2c(C(=O)NC3CCN(Cc4ccccc4)CC3)cc(-c3cccnc3)nc12,1380
7,CCCCNCc1ccc(-c2nc(CN(CCCn3ccnc3)C(=O)Nc3ccc(CC)cc3)cs2)cc1,830
8,CC(C)(C)OC(=O)NCc1ccc(Nc2nnc(-c3ccc(OCC(=O)NCc4ccc(C(C)(C)C)cc4)c([N+](=O)[O-])c3)o2)cc1,800
9,COc1cccc(Nc2nc(Nc3cccc(C#N)c3)cc(C(F)(F)F)n2)c1,834
10,N#Cc1ccc(-n2cc(C(=O)Nc3ccc4c(c3)CCN(C3CCC3)CC4)c(C(F)(F)F)n2)cc1,290
11,SC(=Nc1ccc2c(c1)OCCO2)NN=Cc1ccccn1,1050
12,NCCCOc1cnc(-c2ccccc2)c2nc(-c3nonc3N)n(CCc3ccccc3)c12,1270
13,O=C(c1ccc([N+](=O)[O-])o1)N1CCN(c2nc3c(F)cc(F)cc3s2)CC1,974
14,Cc1nc(C)c(-c2ccc(Oc3ccc(OC(F)(F)F)cc3)cc2)c(O)c1I,128
15,Oc1ccc(CCNc2nc(NCc3cccc(-c4cc(C(F)(F)F)ccc4Cl)c3)nc(N3CCNCC3)n2)cc1,1780
16,COc1cccc(C=CC(=O)N(CCN)Cc2ccccc2)c1,815
17,CS(=O)(=O)NCCCNCc1cccc(-c2cccc(-c3nc4cc(C(F)(F)F)ccc4[nH]3)c2)c1,467
18,Cc1ccc(NC(=O)c2nc(N3CCN(c4ccncc4)CC3)ccc2Cl)cc1F,812
19,O=c1ccc(-c2nc3cc(Cl)c(Cl)cc3n2Cc2ccc(Cl)cc2Cl)c[nH]1,1110
20,Cc1ccc2nc3sc(C(=O)NCCCN4CCC(N5CCCCC5)CC4)cc3cc2c1,675
21,COc1cc2nc(N(C)Cc3cccc(I)c3)nc(N)c2cc1OC,863
22,O=C1c2ccccc2-n2c1nc1ccccc1c2=O [TRYPTANTHRIN],856
23,Cc1c(Cc2ccccc2Br)cnc2nc(N)nc(N)c12,4.62
24,Cc1ccc(Nc2ccnc(Nc3ccc4c(c3)CS(=O)(=O)C4)n2)cc1O,725

row,Compound,XC50 [nM]
1,CC(=O)c1ccc(S(=O)(=O)N2CCC(C(=O)Nc3ccccc3N3CCCC3)CC2)cc1,833
2,Cn1cncc1C(=O)Nc1ccc(-c2cccc(-c3nc4cc(C(F)(F)F)ccc4[nH]3)c2)cc1,858
3,O=C(O)c1cccnc1Sc1ccc(Cl)cc1,830
4,O=c1cc(NCCNCc2cccc(-c3ccccc3)c2)[nH]c2ccccc12,1030
5,CC(=O)c1cccc(NC(=O)NC2CCN(CCCCCNC(=O)/C=C/c3ccc(Cl)c(Cl)c3)CC2)c1,835
6,CCCc1nc2c(N3CCCN(C(=O)NC4CCCCC4)CC3)cccc2n1Cc1ccccn1,1160
7,O=C(Nc1ccc(-c2csc3nccn23)cc1)c1ccc(Cl)cc1,584
8,O=[N+]([O-])c1cccc(CNCC2CCN(Cc3ccc(C(F)(F)F)cc3)CC2)c1,245
9,Cn1c(=O)n(C)c2cc(CNCCNc3ccnc4cc(Cl)ccc34)ccc21,140
10,CC(=O)C1(c2ccccc2)CCN(CCC(NC(=O)c2cc(C(F)(F)F)cc(C(F)(F)F)c2)c2ccc(Cl)c(Cl)c2)CC1 (stereo unspecified),1190
11,Cc1cc(N[C@@H](CC(C)C)C(=O)NCc2cccs2)nc(Nc2ccccc2)n1,1130
12,Cc1ccc2ccccc2c1CCCON1C(=N)N=C(N)NC1(C)C,3.2
13,CN1CCC(NCc2ccc(-c3ccc(Cl)cc3)cc2)CC1,750
14,NCCCNc1nc(Nc2ccc(C(F)(F)F)cc2F)c2c(=O)[nH]ccc2n1,1050
15,CC(C)CCNc1nc(NCCCc2ccccc2)c2cc(O)ccc2n1,166
16,COc1ccc(Nc2ncc(C#N)c(Nc3ccccc3C(N)=O)n2)cc1N1CCN(C)CC1,136
17,N=C(N)NN=CC(=O)Nc1ccc(Cl)c(Cl)c1,737
18,c1cc(-c2ccc(CN3CCN(c4ccncc4)CC3)cc2)cc(-c2nc3ccccc3[nH]2)c1,140
19,O=C(/C=C/c1ccc(Cl)c(Cl)c1)NCCCCCN1CCCN(C(=O)Nc2ccc(F)c(F)c2)CC1,803
20,CCCC(C)Nc1nc(C)cc(N[C@@H](CC(C)C)C(=O)NCCOc2ccccc2)n1 (stereo partly specified),1710
21,CC(C)(CNCc1ccc(F)c(F)c1)c1nc(-c2ccnc(N)n2)c(-c2ccc(Cl)c(O)c2)[nH]1,740
22,CCc1cn(CCCOC)c2ccc(C(=O)N[C@@H](Cc3ccccc3)[C@H](O)CNCc3cccc(C(F)(F)F)c3)cc12,186
23,CN(C)Cc1cc2c(O)c(Cc3ccccc3)ccc2o1,1090
